Assay results reported in patent publication US20110257177A1, “BENZYLTHIOTETRAZOLE INHIBITORS OF STORE OPERATED CALCIUM RELEASE” (CalciMedica, Inc., priority 2008, published 2011).
pIC50: −log10 of the molar value.

Test system: JR^251 or RBL cells
Test: Fluorescence-based assay of store-operated calcium entry, IC50 in either JR^251 or RBL cells, or both
Assay type: cell-based
Protocol: B. Fluorescence-based Assay of Store-Operated Calcium Entry in RBL-2H3Cells.
RBL-2H3 cells are obtained from ATCC and maintained in complete medium with 10% FBS at 37° C./6% CO2.
The day prior to performing the assay, RBL-2H3 cells are plated in 50 μL of complete medium in a 384 well plate. Cells are grown at 37° C./6% CO2 overnight and grow to 50-60% confluence by the next day. On the assay day, 1.5 μM Fluo-4-AM dye (Invitrogen) in complete medium is added and incubated for 1 hour at RT. Cells are washed twice in Ca^2+-free HBSS buffer and 35 μL Ca^2+-free HBSS buffer is added to each well. 10 μL of a test compound prepared in a Ca^2+-free HBSS solution at 4.5× of the desired concentration is added to a well and incubated for 5 minutes at RT. 10 μL of thapsigargin prepared in a Ca^2+-free HBSS solution at 5.5× of the desired concentration (5.5 uM) is added to each well and incubated for an additional 25 minutes. The initial baseline fluorescence signal is measured with a FLIPR^384 (Molecular Devices) plate reader. 5 μL of 12× calcium in HBSS (12 mM) is added and changes in cellular fluorescence are measured with the FLIPR^384 plate reader. In each well, the change in the fluorescent signal as a function of time due to calcium entry into the cell is determined by calculating the difference between the fluorescent signal measured 7 seconds after calcium addition and the initial baseline fluorescence signal at time zero (t=0). This parameter is designated Upslope. The IC50 value is calculated as the concentration at which 50% of the Upslope is inhibited.
C. Fluorescence-based Assay of Store-Operated Calcium Entry in Jurkat Cells.
Jurkat E6-1 cells were obtained from ATCC and maintained in complete medium with 10% FBS at 37° C./6% CO2.
The day prior to performing the assay, Jurkat E6-1 cells are seeded at a density of 2 million cells/mL in complete medium in a T-175 flask. Cells are grown at 37° C./6% CO2 overnight. On the following day, 1.5 μM Fluo-4-AM dye (Invitrogen) in complete medium is added and incubated for 1 hour at RT. Cells are harvested, washed twice in Ca^2+-free HBSS buffer and plated in 35 μL Ca^2+-free HBSS buffer in a 384 well plate. 10 μL of a test compound prepared in a Ca^2+-free HBSS solution at 4.5× of the desired concentration is added to a well and incubated for 5 minutes at RT. 10 μL of thapsigargin prepared in a Ca^2+-free HBSS solution at 5.5× of the desired concentration (5.5 uM) is added to each well and incubated for an additional 25 minutes. The initial baseline fluorescence signal is measured with a FLIPR^384 (Molecular Devices) plate reader. 5 μL of 12× calcium in HBSS (12 mM) is added and changes in cellular fluorescence are measured with the FLIPR^384 plate reader. In each well, the change in the fluorescent signal as a function of time due to calcium entry into the cell is determined by calculating the difference between the fluorescent signal measured 7 seconds after calcium addition and the initial baseline fluorescence signal at time zero (t=0). This parameter is designated Upslope. The IC50 value is calculated as the concentration at which 50% of the Upslope is inhibited.

CCOc1ccc(C(C)=O)cc1CSc1nnnn1-c1cc(C)ccc1C [1-(3-((1-(2,5-dimethylphenyl)-1H-tetrazol-5-ylthio)methyl)-4-ethoxyphenyl)ethanone]
pIC50: > 5.00

Cc1ccc(C)c(-n2nnnc2SC(F)(F)c2c(F)c(F)c(F)c(F)c2F)c1 [1-(2,5-dimethylphenyl)-5-(perfluorobenzylthio)-1H-tetrazole]
pIC50: > 5.00

Cc1ccccc1CSc1nnnn1-c1cccc(C)c1C [1-(2,3-dimethylphenyl)-5-(2-methylbenzylthio)-1H-tetrazole]
pIC50: > 5.00

Cc1ccc(C)c(-n2nnnc2SCc2ccccc2Br)c1 [5-(2-bromobenzylthio)-1-(2,5-dimethylphenyl)-1H-tetrazole]
pIC50: > 5.00

COc1cccc(CSc2nnnn2-c2ccc(C)cc2C)c1 [1-(2,4-dimethylphenyl)-5-(3-methoxybenzylthio)-1H-tetrazole]
pIC50: > 5.00

COc1ccc(CSc2nnnn2-c2ccc(C)cc2C)cc1F [1-(2,4-dimethylphenyl)-5-(3-fluoro-4-methoxybenzylthio)-1H-tetrazole]
pIC50: > 5.00
